One data set has as its system circAβ-a. Put plainly: qRT-PCR of circAβ-a under ASO treatment. The class given is cell-based, human. The settings on record: cells overexpressing circAβ-a, vs Scr. ASO. From the text:
(§1) FIG. 7A. Schematic diagram of the designing of anti-circAβ-a-ASO. FIG. 7B. β-amyloid circular ribonucleic acid qRT-PCR results under ASO treatment; BE-Aβ represents the plasmid overexpressing circAβ-a using pCircRNA-BE vector; DMo-Aβ represents the overexpression using pCircRNA-DMo vector circAβ-a plasmid; Scr. ASO means negative control experiment ASO. FIG. 7C. qRT-PCR results of APP mRNA under ASO treatment.
(§2) In this example, the specific antisense oligonucleotide (ASO) against β-amyloid cyclic ribonucleic acid (circAβ) is used to inhibit and degrade circAβ to prevent and treat Alzheimer's disease. As shown in FIGS. 7A-7C, the level of the circular RNA in the cell is reduced by antisense oligonucleotides (anti-circAβ-a-ASO) against β-amyloid cyclic ribonucleic acid-a (circAβ-a). The APP mRNA was not affected (FIG. 7C). As shown in the figure, antisense oligonucleotides containing SEQ ID No. 41-57 anti-amyloid cyclic ribonucleic acid (circAβ). Antisense oligonucleotides recognize β-amyloid circular ribonucleic acid through base complementary pairing. Antisense oligonucleotides that bind target RNA can degrade target RNA by activating RNase H enzyme activity (FIGS. 7A-7C). Antisense oligonucleotides can also regulate (such as inhibit) protein translation by binding to target RNA.

For a further data set, the system named is APP mRNA. Put plainly: qRT-PCR of APP mRNA under ASO treatment. The class given is cell-based, human.
Text: as §1, §2

Regarding “AAGCAGCTCATCTCCACCACAC (listed as DNA, chemistry not given here) [anti-circAβ-a-ASO, antisense oligonucleotide against circAβ-a]”, the “level of circAβ-a in cells” value in the data set with circAβ-a is “reduced”. Also, the “APP mRNA level” value in the data set on APP mRNA was “not affected”.

These data come from patent US20220275037A1, “ß-AMYLOID CYCLIC RIBONUCLEIC ACID, POLYPEPTIDE, AND APPLICATION THEREOF” (priority 2019, published 2022).
